What was measured:
Assay in all cases: relative viability (nuclei count vs DMSO), 5 days (fraction); higher = more cells survive
A549 = tested on: A549
Method in brief: (§1)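 Lung cancer cell lines in 1536-well plates got either a single drug or a fixed anchor-drug dose together with five library-drug doses (not always all listed) in √10 steps, by pin tool, on the day after seeding. Nuclei were counted after 5 days, and relative viability is the treated-to-vehicle ratio of nuclei counts. Values are medians of duplicate plates.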

Calu-6 = tested on: Calu-6
Method in brief: as §1

EBC-1 = tested on: EBC-1
Method in brief: as §1

HCC-15 = tested on: HCC-15
Method in brief: as §1

IA-LM = tested on: IA-LM
Method in brief: as §1

NCI-H1299 = tested on: NCI-H1299
Method in brief: as §1

NCI-H1703 = tested on: NCI-H1703
Method in brief: as §1

NCI-H1793 = tested on: NCI-H1793
Method in brief: as §1

LCLC-103H = tested on: LCLC-103H
Method in brief: as §1

NCI-H1563 = tested on: NCI-H1563
Method in brief: as §1

NCI-H1623 = tested on: NCI-H1623
Method in brief: as §1

Compound | relative viability (A549; first compound 0.08 µM) | relative viability (A549; first compound 0.8 µM) | relative viability (A549; first compound 2.53 µM) | relative viability (HCC-15; first compound 0.08 µM) | relative viability (HCC-15; first compound 0.253 µM) | relative viability (HCC-15; first compound 0.8 µM) | relative viability (HCC-15; first compound 2.53 µM) | relative viability (IA-LM; first compound 0.08 µM) | relative viability (IA-LM; first compound 0.253 µM) | relative viability (IA-LM; first compound 0.8 µM) | relative viability (IA-LM; first compound 2.53 µM) | relative viability (NCI-H1703; first compound 0.08 µM) | relative viability (NCI-H1793; first compound 0.08 µM) | relative viability (NCI-H1793; first compound 0.253 µM) | relative viability (NCI-H1793; first compound 0.8 µM) | relative viability (NCI-H1793; first compound 2.53 µM) | relative viability (LCLC-103H; first compound 0.08 µM) | relative viability (LCLC-103H; first compound 0.253 µM) | relative viability (LCLC-103H; first compound 0.8 µM) | relative viability (LCLC-103H; first compound 2.53 µM) | also measured
Oc1nc(-c2ccc(C(F)(F)F)cc2)nc2c1CSCC2 [XAV939] + CC1(C)CCC(c2ccc(Cl)cc2)=C(CN2CCN(c3ccc(C(=O)NS(=O)(=O)c4ccc(N[C@H](CCN5CCOCC5)CSc5ccccc5)c(S(=O)(=O)C(F)(F)F)c4)cc3)CC2)C1 [Navitoclax] (partner 0.5 µM) | 1.49 | 1.12 | 1.06 | 0.719 | 0.612 | 0.678 | 0.684 | 0.89 | 0.698 | 0.781 | 0.463 | 1.33 | 0.593 | 0.442 | 0.369 | 0.452 | – | – | – | – | relative viability (A549; first compound 0.253 µM): 1.06; relative viability (Calu-6; first compound 0.08 µM): 0.909; relative viability (Calu-6; first compound 0.253 µM): 0.779; relative viability (Calu-6; first compound 0.8 µM): 0.867; relative viability (Calu-6; first compound 2.53 µM): 0.857; relative viability (EBC-1; first compound 0.08 µM): 0.489; relative viability (EBC-1; first compound 0.253 µM): 0.413; relative viability (EBC-1; first compound 0.8 µM): 0.404; relative viability (EBC-1; first compound 2.53 µM): 0.447; relative viability (NCI-H1299; first compound 0.08 µM): 1.07; relative viability (NCI-H1299; first compound 0.253 µM): 1.02; relative viability (NCI-H1299; first compound 0.8 µM): 1.1; relative viability (NCI-H1299; first compound 2.53 µM): 1.04; relative viability (NCI-H1703; first compound 0.253 µM): 1.35; relative viability (NCI-H1703; first compound 0.8 µM): 0.89; relative viability (NCI-H1703; first compound 2.53 µM): 0.844
Oc1nc(-c2ccc(C(F)(F)F)cc2)nc2c1CSCC2 [XAV939] + CC(=O)Nc1cccc(-n2c(=O)n(C3CC3)c(=O)c3c(Nc4ccc(I)cc4F)n(C)c(=O)c(C)c32)c1 [Trametinib] (partner 0.02 µM) | – | – | – | 0.416 | 0.342 | 0.376 | 0.304 | – | – | – | – | – | 0.576 | 0.381 | 0.381 | 0.353 | 0.704 | 0.641 | 0.672 | 0.676 | –
Oc1nc(-c2ccc(C(F)(F)F)cc2)nc2c1CSCC2 [XAV939] + CC(=O)c1c(C)c2cnc(Nc3ccc(N4CCNCC4)cn3)nc2n(C2CCCC2)c1=O [Palbociclib] (partner 0.5 µM) | – | – | – | 0.709 | 0.68 | 0.721 | 0.705 | – | – | – | – | – | 0.353 | 0.317 | 0.307 | 0.281 | 0.53 | 0.499 | 0.514 | 0.449 | –
Oc1nc(-c2ccc(C(F)(F)F)cc2)nc2c1CSCC2 [XAV939] + Cc1nc(Nc2ncc(C(=O)Nc3c(C)cccc3Cl)s2)cc(N2CCN(CCO)CC2)n1 [Dasatinib] (partner 0.075 µM) | – | – | – | 0.633 | 0.463 | 0.601 | 0.54 | – | – | – | – | – | 0.379 | 0.339 | 0.399 | 0.419 | 0.633 | 0.553 | 0.55 | 0.456 | relative viability (NCI-H1563; first compound 0.08 µM): 0.422; relative viability (NCI-H1563; first compound 0.253 µM): 0.442; relative viability (NCI-H1563; first compound 0.8 µM): 0.475; relative viability (NCI-H1563; first compound 2.53 µM): 0.415; relative viability (NCI-H1623; first compound 0.08 µM): 0.474; relative viability (NCI-H1623; first compound 0.253 µM): 0.516; relative viability (NCI-H1623; first compound 0.8 µM): 0.521; relative viability (NCI-H1623; first compound 2.53 µM): 0.555
Oc1nc(-c2ccc(C(F)(F)F)cc2)nc2c1CSCC2 [XAV939] + NC(=O)Nc1cc(-c2cccc(F)c2)sc1C(=O)N[C@H]1CCCNC1 [AZD7762] (partner 0.2 µM) | – | – | – | 1.31 | 1.15 | 1.21 | 1.08 | – | – | – | – | 0.156 | 0.989 | 0.307 | 0.355 | 0.312 | 0.869 | 0.719 | 0.792 | 0.68 | relative viability (NCI-H1703; first compound 0.253 µM): 0.137; relative viability (NCI-H1703; first compound 0.8 µM): 0.138; relative viability (NCI-H1703; first compound 2.53 µM): 0.111
Oc1nc(-c2ccc(C(F)(F)F)cc2)nc2c1CSCC2 [XAV939] + Nc1nc2[nH]cc(CCc3ccc(C(=O)N[C@@H](CCC(=O)O)C(=O)O)cc3)c2c(=O)[nH]1 [Pemetrexed] (partner 0.2 µM) | – | – | – | 0.238 | 0.214 | 0.241 | 0.201 | – | – | – | – | – | 1.08 | 0.797 | 0.936 | 0.678 | 0.448 | 0.405 | 0.519 | 0.472 | relative viability (NCI-H1563; first compound 0.08 µM): 0.823; relative viability (NCI-H1563; first compound 0.253 µM): 0.685; relative viability (NCI-H1563; first compound 0.8 µM): 0.659; relative viability (NCI-H1563; first compound 2.53 µM): 0.47
Oc1nc(-c2ccc(C(F)(F)F)cc2)nc2c1CSCC2 [XAV939] + Nc1ncn([C@H]2C[C@H](O)[C@@H](CO)O2)c(=O)n1 [Decitabine] (partner 2 µM) | 0.291 | 0.315 | 0.228 | 0.702 | 0.656 | 0.656 | 0.635 | – | – | – | – | – | 0.506 | 0.403 | 0.549 | 0.416 | 0.756 | 0.587 | 0.687 | 0.642 | –
Oc1nc(-c2ccc(C(F)(F)F)cc2)nc2c1CSCC2 [XAV939] + O=C(CCCCCCC(=O)Nc1ccccc1)NO [Vorinostat] (partner 1 µM) | – | – | – | 0.824 | 0.742 | 0.837 | 0.692 | 1.08 | 0.664 | 0.951 | 0.778 | – | 0.952 | 0.573 | 0.937 | 0.733 | 0.874 | 0.698 | 0.805 | 0.618 | –
Oc1nc(-c2ccc(C(F)(F)F)cc2)nc2c1CSCC2 [XAV939] + O=C(c1cc(Cc2n[nH]c(=O)c3ccccc23)ccc1F)N1CCN(C(=O)C2CC2)CC1 [Olaparib] (partner 8 µM) | 0.357 | 0.246 | 0.19 | 0.693 | 0.717 | 0.67 | 0.676 | 0.824 | 0.633 | 0.728 | 0.699 | 0.415 | 1.15 | 0.707 | 0.916 | 0.646 | 0.833 | 0.691 | 0.725 | 0.767 | relative viability (A549; first compound 0.253 µM): 0.265; relative viability (Calu-6; first compound 0.08 µM): 0.556; relative viability (Calu-6; first compound 0.253 µM): 0.547; relative viability (Calu-6; first compound 0.8 µM): 0.544; relative viability (Calu-6; first compound 2.53 µM): 0.504; relative viability (EBC-1; first compound 0.08 µM): 0.722; relative viability (EBC-1; first compound 0.253 µM): 0.623; relative viability (EBC-1; first compound 0.8 µM): 0.619; relative viability (EBC-1; first compound 2.53 µM): 0.607; relative viability (NCI-H1299; first compound 0.08 µM): 0.937; relative viability (NCI-H1299; first compound 0.253 µM): 0.883; relative viability (NCI-H1299; first compound 0.8 µM): 0.931; relative viability (NCI-H1299; first compound 2.53 µM): 0.914; relative viability (NCI-H1703; first compound 0.253 µM): 0.236; relative viability (NCI-H1703; first compound 0.8 µM): 0.408; relative viability (NCI-H1703; first compound 2.53 µM): 0.485
